# Measurements taken from patent US12636300B2, “Methods of treatment and maintenance therapy for bladder cancer using gemcitabine” (Janssen Biotech, Inc., priority 2017, dated 2026).
# Legend:
# [1] = tested on: muscle-invasive urothelial cell carcinoma of the bladder; experiment: Clinical response assessment after TAR-200 induction (cystoscopy, CT/MRI/PET, biopsy); assay type: in vivo, human
# Method: (§1) Subjects receive the first TAR-200 transurethrally via the TARIS Inserter on Study Day 0. On Study Day 21 (±3 days), this first TAR-200 will be removed via flexible or rigid cystoscopy, and then the second TAR-200 will be placed. TAR-200 is an intravesicular device that contains 225 mg of gemcitabine. This removal/replacement procedure is repeated for a third and fourth dosing cycle in the induction period on Study Days 42 (±3 days), and 63 (±3 days), respectively. The fourth TAR-200 will be removed on Study Day 84 (±3 days), and the 3-month response assessment will be conducted.
# During the maintenance period, a 21-day dosing cycle occurs every quarter (3 months) starting at approximately 6 months. Subjects may continue to undergo quarterly dosing cycles for 3 dosing cycles.
# All subjects are assessed for clinical response every 3 months by cystoscopy, pelvic computed tomography (CT)/magnetic resonance imaging (MRI)/positron emission tomography (PET), and biopsy (at 12 weeks only, unless clinically indicated). Subjects are also assessed for symptom control at 3, 6, 9, and 12 weeks, and approximately every month during the maintenance period.
# The secondary endpoints are proportion of subjects with clinical complete response (cCR), clinical partial response (cPR), stable disease (SD), and progression on the basis of visual lesions on cystoscopy, pelvic CT/MRI/PET, and biopsy. For purposes of this study, cCR means no evidence of the disease in the bladder or notes. cPR means in the previously N0 subject, a down staging in bladder tumor burden to <pT2 disease and no evidence of nodal disease burden or in the N1-N3 subject: a down staging in bladder tumor burden to <pT2 disease and no evidence of an increase in the size of nodal disease burden or no evidence of down staging in bladder tumor burden and a decrease in the size of nodal disease burden. Stable disease means persistent MIBC without evidence of metastasis. Progression means M1 disease or significant increase in burden of disease in bladder based upon cystoscopy and Ct/MRI/PET. […]
# [2] = Safety and tolerability of 4 consecutive 21 day TAR-200 dosing cycles; assay type: in vivo, human; details: four consecutive 3-week delivery periods; patients unfit for radical cystectomy
# Method: as §1
# The primary endpoint is assessment of safety and tolerability of 4 consecutive 21 day TAR-200 dosing cycles.
# Twenty three patients were enrolled in the study as described in Example 1. The age range among the enrolled patients is from 50 to 98. The mean age is 82.6, and the median age is 84. The patients were treated and assessed according to the methods described therein. Patients that accomplished a complete response, partial response or stable disease after the induction phase received the maintenance phase treatment.
smiles,measurement,setting,value
Nc1ccn([C@@H]2O[C@H](CO)[C@@H](O)C2(F)F)c(=O)n1 [gemcitabine],duration of durable effect after the induction therapy,[1]; after the induction therapy,at least 100 days
same,objective response rate (ORR),"[1]; per protocol basis, end of induction period (Day 84)",80%
same,complete response rate,"[1]; per protocol basis, end of induction period (Day 84), ten patients who completed four cycles",50%
same,tolerability of four consecutive doses (induction),[2],well tolerate
